According to publication PMC6274353, “The Blood-Brain Barrier Permeability of Lignans and Malabaricones from the Seeds of Myristica fragrans in the MDCK-pHaMDR Cell Monolayer Model” (Molecules, 2016):

System: not listed separately
Assay: bidirectional transport across the MDCK-pHaMDR cell monolayer (in vitro BBB model)
Details: dog, MDCK-MDR1, pH 7.35
Experimental: (§1) The MDCK-pHaMDR cells were seeded at a density of about 8 × 10^4 cells/mL on the 12-well Transwell® plates. After an eight-day culture, the cells reached confluence and differentiation for the transport study.
(§2) On the 8th day, the monolayers were washed twice and shaken at 55 rpm for 30 min with HBSS at 37 °C. Then, the TEER was measured with an epithelial volt-ohm meter (EVOM; World Precision Instrument) to examine the monolayer's integrity. Only those with the TEER values above 1000 Ω·cm^2 were qualified for the transport.
(§3) The bidirectional transport assay was initiated by adding a test compound to either the apical (0.5 mL for apical to basolateral transport, A→B) or the basolateral (1.5 mL for basolateral to apical transport, B→A) side. After shaking at 55 rpm and 37 °C for a certain time, samples (A→B: 400 µL from the apical side and 1300 µL from the basolateral side; B→A: 450 µL from the apical side and 450 µL from the basolateral side) were collected, immediately frozen, lyophilized and preserved below –20 °C before analysis.
(§4) Papp of each compound was calculated based on the following equation: (1) Papp = (ΔQ/Δt)/(AC0) (cm/s) where ΔQ/Δt is the appearance rate of the test compound at the receiver side (µmol/s), C0 is the initial concentration of the test compound at the donor side (µM), and A is the membrane surface area (cm^2). All of the experiments were conducted in triplicate.

Papp A→B at 90 min, 100 µM | Papp B→A at 90 min, 100 µM | Papp at 90 min, 100 µM | Compound | Papp
2.43 ± 0.32 ×10⁻⁶ cm/s | 1.82 ± 0.18 ×10⁻⁶ cm/s | ~1 ×10⁻⁶ cm/s | C/C=C/c1cc(OC)c2c(c1)[C@@H](C)[C@H](c1ccc(O)c(OC)c1)O2 (racemic) [Compound 1, Dehydrodiisoeugenol] | –
< 0.062 ×10⁻⁶ cm/s | < 0.06 ×10⁻⁶ cm/s | ≤ 0.01 ×10⁻⁶ cm/s | C/C=C/c1cc(OC)c2c(c1)[C@@H](C)[C@H](c1ccc3c(c1)OCO3)O2 [Compound 3, licarin B] | –
< 0.057 ×10⁻⁶ cm/s | < 0.055 ×10⁻⁶ cm/s | ≤ 0.01 ×10⁻⁶ cm/s | C/C=C/c1cc(OC)c2c(c1)[C@@H](C)[C@H](c1cc(OC)c3c(c1)OCO3)O2 [Compound 4, 3′-methoxylicarin B] | –
10.9 ± 0.32 ×10⁻⁶ cm/s | 20.4 ± 0.97 ×10⁻⁶ cm/s | – | COc1cc([C@H]2O[C@@H](c3ccc(O)c(OC)c3)[C@@H](C)[C@@H]2C)ccc1O [Compound 8, verrucosin] | –
10.4 ± 1.49 ×10⁻⁶ cm/s | 15 ± 1.27 ×10⁻⁶ cm/s | – | COc1cc([C@H]2O[C@@H](c3ccc(O)c(OC)c3)[C@H](C)[C@@H]2C)ccc1O [Compound 9, nectandrin B] | –
< 0.145 ×10⁻⁶ cm/s | < 0.14 ×10⁻⁶ cm/s | ~0.1 ×10⁻⁶ cm/s | COc1cc(CC(C)C(C)Cc2ccc(O)c(OC)c2)ccc1O (stereo not drawn) [Compound 10, dihydroguaiaretic acid] | –
< 0.075 ×10⁻⁶ cm/s | < 0.073 ×10⁻⁶ cm/s | ≤ 0.01 ×10⁻⁶ cm/s | COc1cc([C@H]2c3cc(O)c(OC)cc3C[C@@H](C)[C@@H]2C)ccc1O [Compound 11, guaiacin] | –
< 0.073 ×10⁻⁶ cm/s | < 0.07 ×10⁻⁶ cm/s | ≤ 0.01 ×10⁻⁶ cm/s | COc1cc2c(cc1O)[C@H](c1ccc3c(c1)OCO3)[C@@H](C)[C@H](C)C2 [Compound 12, otobaphenol] | –
0.64 ± 0.07 ×10⁻⁶ cm/s | 0.63 ± 0.04 ×10⁻⁶ cm/s | ~0.1 ×10⁻⁶ cm/s | O=C(CCCCCCCCc1ccc(O)c(O)c1)c1c(O)cccc1O [Compound 15, malabaricone C] | –
– | – | – | Cn1c(=O)c2c(ncn2C)n(C)c1=O [caffeine, reference compound] | 24.4 ± 1.1 ×10⁻⁶ cm/s

Compound | Papp A→B at 90 min, 100 µM | Papp B→A at 90 min, 100 µM | Papp at 90 min, 100 µM | Papp
O=C(CCCCCCCCc1ccccc1)c1c(O)cccc1O [Compound 13, malabaricone A] | < 0.038 ×10⁻⁶ cm/s | < 0.037 ×10⁻⁶ cm/s | ≤ 0.01 ×10⁻⁶ cm/s | –

System: MDCK-pHaMDR cell monolayer
Assay: as above
Details: classed by Papp against caffeine and atenolol
Experimental: as §1, §2, §3, §4

permeability (in words) | Compound
very poor permeability | C/C=C/c1cc(OC)c2c(c1)[C@@H](C)[C@H](c1ccc3c(c1)OCO3)O2 [Compound 3, licarin B]
very poor permeability | C/C=C/c1cc(OC)c2c(c1)[C@@H](C)[C@H](c1cc(OC)c3c(c1)OCO3)O2 [Compound 4, 3′-methoxylicarin B]

System: P-glycoprotein (P-gp)
Assay: in vitro
Details: dog, MDCK-MDR1

Papp B→A | Compound
3.31 ± 0.12 ×10⁻⁶ cm/s | COC(=O)c1ccccc1-c1c2ccc(=N)cc-2oc2cc(N)ccc12 [rhodamin 123, rhodamine 123]

Same assay, conditions: dog, MDCK-MDR1, with verapamil 100 µM

Papp B→A | Compound
1.52 ± 0.08 ×10⁻⁶ cm/s | COC(=O)c1ccccc1-c1c2ccc(=N)cc-2oc2cc(N)ccc12 [rhodamin 123, rhodamine 123]
